From patent publication US11596639B2, “Substituted indole Mcl-1 inhibitors” (Vanderbilt University, priority 2016, dated 2023)
Read-outs that look alike come from different tables or passages of the source.

Columns and labels:
Mcl-1 = Mcl-1 (Homo sapiens (Human), UniProt Q07820); assay: Fluorescence polarization anisotropy (FPA) competition assay, FITC-Bak or FITC-Bim BH3 peptide; assay type: binding; conditions: read-out: Ki for Inhibition of Mcl-1 by FPA assay
[1] = system: H929 human cancer cell lines; assay: Cellular viability / proliferation (Cell TiterGlo, 72 h); assay type: cell-based
Summary of the method: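 Compounds were added as 2-fold serial dilutions from 50 μM (final DMSO <1%) to H929 cells seeded 1,000 per well in 10% FBS medium one day earlier.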

[2] = Homo sapiens, NCI-H929, 72 h, read-out: GI50 on cellular proliferation of H929 human cancer cell lines, H929 cells, 72 h, Cell TiterGlo, 10% FBS
[3] = H929 cells, 72 h, Cell TiterGlo, 10% FBS, read-out: GI50 on cellular proliferation of H929 human cancer cell lines

Sequence of Mcl-1 (Q07820 172-327): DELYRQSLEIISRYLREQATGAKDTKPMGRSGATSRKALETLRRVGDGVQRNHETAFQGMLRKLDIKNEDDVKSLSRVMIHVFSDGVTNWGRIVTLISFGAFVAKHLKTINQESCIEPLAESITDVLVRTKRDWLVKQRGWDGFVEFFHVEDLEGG

Compound	Ki (Mcl-1) [nM]	GI50 [1, 2] [nM]	GI50 [1, 3] [nM]
COc1cc(C(=O)O)cc(N2CCCn3c(c(CCCOc4cc(C)c(Cl)c(C)c4)c4ccc(Cl)c(-c5c(C)nn(C)c5C)c43)C2=O)c1OCCc1ccccc1 [Example 66, 3-[8-Chloro-11-[3-(4-chloro-3,5-dimethyl-phenoxy)propyl]-1-oxo-7-(1,3,5-trimethylpyrazol-4-yl)-4,5-dihydro-3H-[1,4]diazepino[1,2-a]indol-2-yl]-5-methoxy-4-(2-phenylethoxy)benzoic acid]	4.3	6400	–
COc1cc(N2C[C@@H](C)n3c(c(CCCOc4cc(C)c(Cl)c(C)c4)c4ccc(Cl)c(-c5c(C)nn(C)c5C)c43)C2=O)c2c(c1)cc(C(=O)O)n2C [Example 342, (R)-7-(7-Chloro-10-(3-(4-chloro-3,5-dimethylphenoxy)propyl)-4-methyl-1-oxo-6-(1,3,5-trimethyl-1H-pyrazol-4-yl)-3,4-dihydropyrazino[1,2-a]indol-2(1H)-yl)-5-methoxy-1-methyl-1H-indole-2-carboxylic acid]	< 1	230	–
Cc1cc(OCCCc2c3n(c4c(-c5c(C)nn(C)c5C)c(Cl)ccc24)CCCN(c2cc(C(=O)O)c4cnn(CCN5CCOCC5)c4c2)C3=O)cc(C)c1Cl [Example 14, 6-[8-Chloro-11-[3-(4-chloro-3,5-dimethyl-phenoxy)propyl]-1-oxo-7-(1,3,5-trimethylpyrazol-4-yl)-4,5-dihydro-3H-[1,4]diazepino[1,2-a]indol-2-yl]-1-(2-morpholinoethyl)indazole-4-carboxylic acid]	< 1	3200	–
Cc1cnc(-c2ccc3c(c2)c(N2C[C@@H](C)n4c(c(CCCOc5cc(C)c(Cl)c(C)c5)c5ccc(Cl)c(-c6c(C)nn(C)c6C)c54)C2=O)cn3C)nc1 [Example 450, (R)-7-Chloro-10-(3-(4-chloro-3,5-dimethylphenoxy)propyl)-4-methyl-2-(1-methyl-5-(5-methylpyrimidin-2-yl)-1H-indol-3-yl)-6-(1,3,5-trimethyl-1H-pyrazol-4-yl)-3,4-dihydropyrazino[1,2-a]indol-1(2H)-one]	2.2	1100	–
COc1ccc(N2C[C@@H](C)n3c(c(CCCOc4cc(C)c(Cl)c(C)c4)c4ccc(Cl)c(-c5c(C)nn(C)c5C)c43)C2=O)c2cc(C(=O)O)n(C)c12 [Example 344, (M, R)-4-(7-Chloro-10-(3-(4-chloro-3,5-dimethylphenoxy)propyl)-4-methyl-1-oxo-6-(1,3,5-trimethyl-1H-pyrazol-4-yl)-3,4-dihydropyrazino[1,2-a]indol-2(1H)-yl)-7-methoxy-1-methyl-1H-indole-2-carboxylic acid]	< 1	–	1300
CC(=O)N1CCN(Cc2nc(C)c(-c3c(Cl)ccc4c(CCCOc5cc(C)c(Cl)c(C)c5)c5n(c34)[C@H](C)CN(c3cn(C)c4ccc(C(=O)O)cc34)C5=O)c(C)n2)CC1 [Example 433, (R)-3-(6-(2-((4-Acetylpiperazin-1-yl)methyl)-4,6-dimethylpyrimidin-5-yl)-7-chloro-10-(3-(4-chloro-3,5-dimethylphenoxy)propyl)-4-methyl-1-oxo-3,4-dihydropyrazino[1,2-a]indol-2(1H)-yl)-1-methyl-1H-indole-5-carboxylic acid]	1.7	440	–
Cc1cc(OCCCc2c3n(c4c(-c5c(C)ncnc5C)c(Cl)ccc24)CCCNC3=O)cc(C)c1Cl [Example 120, 8-Chloro-11-(3-(4-chloro-3,5-dimethylphenoxy)propyl)-7-(4,6-dimethylpyrimidin-5-yl)-2,3,4,5-tetrahydro-1H-[1,4]diazepino[1,2-a]indol-1-one]	39	12000	–
Cc1cc(OCCCc2c3n(c4c(-c5c(C)nn(CCN6CCCC6)c5C)c(Cl)ccc24)[C@H](C)CN(c2cn(C)c4cc(C(=O)O)ccc24)C3=O)cc(C)c1Cl [Example 306, (R)-3-(7-chloro-10-(3-(4-chloro-3,5-dimethylphenoxy)propyl)-6-(3,5-dimethyl-1-(2-(pyrrolidin-1-yl)ethyl)-1H-pyrazol-4-yl)-4-methyl-1-oxo-3,4-dihydropyrazino[1,2-a]indol-2(1H)-yl)-1-methyl-1H-indole-6-carboxylic acid]	1.3	600	–
Cc1cc(OCCCc2c3n(c4c(-c5c(C)n[nH]c5C)c(Cl)ccc24)CCCN(c2cc(C(=O)O)c4cnn(C)c4c2)C3=O)cc(C)c1Cl [Example 95, 6-(8-Chloro-1-(3-(4-chloro-3,5-dimethylphenoxy)propyl)-7-(3,5-dimethyl-1H-pyrazol-4-yl)-1-oxo-4,5-dihydro-1H-[1,4]diazepino[1,2-a]indol-2(3H)-yl)-1-methyl-1H-indazole-4-carboxylic acid]	< 1	–	10000
Cc1cc(OCCCc2c3n(c4c(-c5c(C)nn(C)c5C)c(Cl)ccc24)[C@H](C)CN(c2cn(C)c4c(C)c(C(=O)O)ccc24)C3=O)cc(C)c1Cl [Example 250, (R)-3-(7-Chloro-10-(3-(4-chloro-3,5-dimethylphenoxy)propyl)-4-methyl-1-oxo-6-(1,3,5-trimethyl-1H-pyrazol-4-yl)-3,4-dihydropyrazino[1,2-a]indol-2(1H)-yl)-1,7-dimethyl-1H-indole-6-carboxylic acid]	< 1	480	–
Cc1noc(-c2ccc3c(c2)c(N2C[C@@H](C)n4c(c(CCCOc5cc(C)c(Cl)c(C)c5)c5ccc(Cl)c(-c6c(C)ncnc6C)c54)C2=O)cn3C)n1 [Example 395, (R)-7-Chloro-10-(3-(4-chloro-3,5-dimethylphenoxy)propyl)-6-(4,6-dimethylpyrimidin-5-yl)-4-methyl-2-(1-methyl-5-(3-methyl-1,2,4-oxadiazol-5-yl)-1H-indol-3-yl)-3,4-dihydropyrazino[1,2-a]indol-1(2H)-one]	2.2	860	–
Cc1cc(OCCCc2c3n(c4c(-c5c(C)n[nH]c5C)c(Cl)ccc24)[C@H](C)CN(c2cn(C)c4c(C)cc(C(=O)O)cc24)C3=O)cc(C)c1Cl [Example 160, (R)-3-(7-chloro-10-(3-(4-chloro-3,5-dimethylphenoxy)propyl)-6-(3,5-dimethyl-1H-pyrazol-4-yl)-4-methyl-1-oxo-3,4-dihydropyrazino[1,2-a]indol-2(1H)-yl)-1,7-dimethyl-1H-indole-5-carboxylic acid]	1.1	690	–
COc1ccc(Cn2c(C(=O)O)cc3cccc(N4C[C@@H](C)n5c(c(CCCOc6cc(C)c(Cl)c(C)c6)c6ccc(Cl)c(-c7c(C)nn(C)c7C)c65)C4=O)c32)nc1 [Example 382, (R)-7-(7-Chloro-10-(3-(4-chloro-3,5-dimethylphenoxy)propyl)-4-methyl-1-oxo-6-(1,3,5-trimethyl-1H-pyrazol-4-yl)-3,4-dihydropyrazino[1,2-a]indol-2(1H)-yl)-1-((5-methoxypyridin-2-yl)methyl)-1H-indole-2-carboxylic acid]	1.2	750	–
Cc1cc(OCCCc2c3n(c4c(-c5c(C)nn(C)c5C)c(Cl)ccc24)[C@H](C)CN(c2ccc(OCc4ccccc4)c4c2cc(C(=O)O)n4C)C3=O)cc(C)c1Cl [Example 327, (P, R)-7-(Benzyloxy)-4-(7-chloro-10-(3-(4-chloro-3,5-dimethylphenoxy)propyl)-4-methyl-1-oxo-6-(1,3,5-trimethyl-1H-pyrazol-4-yl)-3,4-dihydropyrazino[1,2-a]indol-2(1H)-yl)-1-methyl-1H-indole-2-carboxylic acid]	1.6	–	3600
